# Experimental data taken from patent publication US9901592B2 (priority 2008, dated 2018).
# Marks after values point to notes of the source that are not given here.
# Key:
# S. aureus = assay type: cell-based
# [1] = tested on: ribosome erm-dimethylated at A2058; test: binding to the ribosome
# S. pneumoniae = assay type: cell-based
# Mycobacterium bovis BCG = assay type: cell-based
# Legionella pneumophila = test: microbe, parasite or virus in culture; assay type: cell-based, L. pneumophila
# N. meningitidis = test: MIC, CLSI broth microdilution, invasive isolates; assay type: cell-based
# Description: Example. […] Colonization of the nasopharynx (NP) by NM can lead to invasive meningococcal disease. Chemoprophylaxis is used to eradicate NP colonization and prevent transmission to nonimmune contacts. […] 62 isolates (91.9% blood culture) of NM were collected from 29 medical centers in North and South America and Europe (1997-2008). […] Serological identification was performed for serogroups (SGs) B, C, Y and W135.
# group A streptococci = test: microbe, parasite or virus in culture; assay type: cell-based, S. pyogenes; settings: Streptococcus pyogenes
# pneumococci = test: microbe, parasite or virus in culture; assay type: cell-based, S. pneumoniae; settings: Streptococcus pneumoniae
# [2] = Neisseria meningitidis, 62 N. meningitidis isolates
smiles,measurement,setting,value
CC[C@H]1OC(=O)[C@H](C)[C@@H](OC2CC(C)(OC)C(O)C(C)O2)[C@H](C)[C@@H](OC2OC(C)CC(N(C)C)C2O)[C@@](C)(OC)C[C@@H](C)C(=O)[C@H](C)[C@H]2N(CCCCn3cc(-c4cccc(N)c4)nn3)C(=O)O[C@]12C (stereo partly drawn) [Entry 20c],MIC,S. aureus,8 µg/mL
same,binding to the ribosome,[1],considerable binding
same,MIC,S. pneumoniae,≦0.0625 μg/mL
CO[C@H]1/C=C/O[C@@]2(C)Oc3c(C)c(O)c4c(O)c(c(/C=N/N5CCN(C)CC5)c(O)c4c3C2=O)NC(=O)/C(C)=C\C=C\[C@H](C)[C@H](O)[C@@H](C)[C@@H](O)[C@@H](C)[C@H](OC(C)=O)[C@@H]1C [Rifampin],reduction of lethality by growth arrest,Mycobacterium bovis BCG; DETA-NO-induced growth arrest,no effect
same,MIC Range,Legionella pneumophila; LPN (30),0.03-0.06^a μg/ml
same,MIC50,Legionella pneumophila; Legionella pneumophila,0.03 µg/mL
same,MIC90,Legionella pneumophila; Legionella pneumophila,0.03 µg/mL
same,% Res.,"N. meningitidis; CLSI (M100-S19, 2009) criteria",0.0%
same,% Susc.,"N. meningitidis; CLSI (M100-S19, 2009) criteria",100.0%
same,MIC,N. meningitidis; [2],0.008 to 0.12 µg/mL
same,MIC50,N. meningitidis; [2],0.015 µg/mL
same,MIC90,N. meningitidis; [2],0.06 µg/mL
COc1c(N2C[C@@H]3CCCN[C@@H]3C2)c(F)cc2c(=O)c(C(=O)O)cn(C3CC3)c12 [moxifloxacin],MIC50,group A streptococci,0.25 µg/mL
same,MIC90,group A streptococci,0.25 µg/mL
same,activity during growth arrest relative to gatifloxacin,Mycobacterium bovis BCG; growth-arrested cells,2 fold
same,MIC50,"pneumococci; pneumococci, L4 mutations (27)",0.25 µg/mL
same,MIC90,"pneumococci; pneumococci, L4 mutations (27)",0.5 µg/mL
same,MIC,"pneumococci; read-out: MIC range, pneumococci, L4 mutations (27)",0.125 to 4 µg/mL
